According to PubChem BioAssay (NCI):
Where “and” joins values, the source holds several entries; their conditions need not be identical. Equal entries are not always repeated.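 48-hour exposure; five concentrations; linearly interpolated endpoints. GI50 marks 50% less growth. TGI denotes the concentration required for complete inhibition of growth.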

Legend:
Assay in all cases: NCI tumour cell line growth inhibition, 48 h
786-0 renal = tested on: 786-0 renal
A498 renal = tested on: A498 renal
A549 NSCLC = tested on: A549 NSCLC
ACHN renal = tested on: ACHN renal
BT-549 breast = tested on: BT-549 breast
CAKI-1 renal = tested on: CAKI-1 renal
CCRF-CEM leukemia = tested on: CCRF-CEM leukemia
COLO 205 colon = tested on: COLO 205 colon
DU-145 prostate = tested on: DU-145 prostate
EKVX NSCLC = tested on: EKVX NSCLC
HCC-2998 colon = tested on: HCC-2998 colon
HCT-116 colon = tested on: HCT-116 colon
HCT-15 colon = tested on: HCT-15 colon
HL-60(TB) leukemia = tested on: HL-60(TB) leukemia
HOP-62 NSCLC = tested on: HOP-62 NSCLC
HOP-92 NSCLC = tested on: HOP-92 NSCLC
HS 578T breast = tested on: HS 578T breast
HT29 colon = tested on: HT29 colon
IGROV1 ovarian = tested on: IGROV1 ovarian
K-562 leukemia = tested on: K-562 leukemia
KM12 colon = tested on: KM12 colon
LOX IMVI melanoma = tested on: LOX IMVI melanoma
M14 melanoma = tested on: M14 melanoma
MALME-3M melanoma = tested on: MALME-3M melanoma
MCF7 breast = tested on: MCF7 breast
MDA-MB-231 breast = tested on: MDA-MB-231 breast
MDA-MB-435 = tested on: MDA-MB-435
MDA-N = tested on: MDA-N
MOLT-4 leukemia = tested on: MOLT-4 leukemia
NCI-H226 lung = tested on: NCI-H226 lung
NCI-H23 lung = tested on: NCI-H23 lung
NCI-H460 lung = tested on: NCI-H460 lung
NCI-H522 lung = tested on: NCI-H522 lung
NCI/ADR-RES ovarian = tested on: NCI/ADR-RES ovarian
OVCAR-3 ovarian = tested on: OVCAR-3 ovarian
OVCAR-4 ovarian = tested on: OVCAR-4 ovarian
OVCAR-5 ovarian = tested on: OVCAR-5 ovarian
OVCAR-8 ovarian = tested on: OVCAR-8 ovarian
PC-3 prostate = tested on: PC-3 prostate
RPMI-8226 leukemia = tested on: RPMI-8226 leukemia
RXF 393 renal = tested on: RXF 393 renal
SF-268 CNS = tested on: SF-268 CNS
SF-295 CNS = tested on: SF-295 CNS
SF-539 CNS = tested on: SF-539 CNS
SK-MEL-2 melanoma = tested on: SK-MEL-2 melanoma
SK-MEL-28 melanoma = tested on: SK-MEL-28 melanoma
SK-MEL-5 melanoma = tested on: SK-MEL-5 melanoma
SK-OV-3 ovarian = tested on: SK-OV-3 ovarian
SN12C renal = tested on: SN12C renal
SNB-19 CNS = tested on: SNB-19 CNS
SNB-75 CNS = tested on: SNB-75 CNS
SR leukemia = tested on: SR leukemia
SW-620 colon = tested on: SW-620 colon
T-47D breast = tested on: T-47D breast
TK-10 renal = tested on: TK-10 renal
U251 CNS = tested on: U251 CNS
UACC-257 melanoma = tested on: UACC-257 melanoma
UACC-62 melanoma = tested on: UACC-62 melanoma
UO-31 renal = tested on: UO-31 renal

Clc1ccc(COC(Cn2ccnc2)c2ccc(Cl)cc2Cl)cc1 (stereo not given)
GI50 (786-0 renal): 1.88 µM | TGI (786-0 renal): 4.01 µM and 25.8 µM and 26.3 µM | GI50 (A498 renal): 1.23 µM | TGI (A498 renal): 8.22 µM and 27.8 µM and 24.2 µM | GI50 (A549 NSCLC): 2.78 µM | TGI (A549 NSCLC): 12.1 µM and 27 µM and 23.9 µM | GI50 (ACHN renal): 3.59 µM | TGI (ACHN renal): 12.6 µM and 29.8 µM and 25.9 µM | GI50 (BT-549 breast): 2.48 µM | TGI (BT-549 breast): 6.63 µM and 35.3 µM and 30.4 µM | GI50 (CAKI-1 renal): 2.05 µM | TGI (CAKI-1 renal): 9.58 µM and 24.9 µM and 23.6 µM | GI50 (CCRF-CEM leukemia): 3.22 µM | TGI (CCRF-CEM leukemia): 14.1 µM and 23.7 µM and 21.1 µM | GI50 (COLO 205 colon): 1.84 µM | TGI (COLO 205 colon): 3.97 µM and 24.6 µM and 22.5 µM | GI50 (DU-145 prostate): 5.41 µM | TGI (DU-145 prostate): 17.8 µM and 30.1 µM and 28.2 µM | GI50 (EKVX NSCLC): 2.91 µM | TGI (EKVX NSCLC): 13.9 µM and 25.5 µM and 27.5 µM | GI50 (HCC-2998 colon): 2.72 µM | TGI (HCC-2998 colon): 10.5 µM and 29.6 µM and 30 µM | GI50 (HCT-116 colon): 1.42 µM | TGI (HCT-116 colon): 3.1 µM and 21.1 µM and 20.2 µM | GI50 (HCT-15 colon): 3.24 µM | TGI (HCT-15 colon): 12.7 µM and 27.5 µM | GI50 (HL-60(TB) leukemia): 2.42 µM | TGI (HL-60(TB) leukemia): 5.2 µM and 22.7 µM and 16.6 µM | GI50 (HOP-62 NSCLC): 3.02 µM | TGI (HOP-62 NSCLC): 13.6 µM and 26.8 µM and 35.6 µM | GI50 (HOP-92 NSCLC): 0.511 µM | TGI (HOP-92 NSCLC): 3.42 µM and 24.1 µM and 25.2 µM | GI50 (HS 578T breast): 3.72 µM | TGI (HS 578T breast): 22.9 µM and 38.8 µM and 40.5 µM | GI50 (HT29 colon): 1.95 µM | TGI (HT29 colon): 5.22 µM and 22.4 µM and 21.5 µM | GI50 (IGROV1 ovarian): 2.62 µM | TGI (IGROV1 ovarian): 12.3 µM and 25.8 µM and 26.1 µM | GI50 (K-562 leukemia): 2.8 µM | TGI (K-562 leukemia): 10.2 µM and 23.9 µM and 21.1 µM | GI50 (KM12 colon): 3.18 µM | TGI (KM12 colon): 11 µM and 29.5 µM and 28.4 µM | GI50 (LOX IMVI melanoma): 0.533 µM | GI50 (M14 melanoma): 2.92 µM | TGI (M14 melanoma): 10.2 µM and 29.8 µM and 26.2 µM | GI50 (MALME-3M melanoma): 2.22 µM | TGI (MALME-3M melanoma): 6.36 µM and 28.2 µM and 31.1 µM | GI50 (MCF7 breast): 2.43 µM | TGI (MCF7 breast): 6.63 µM and 28.7 µM and 24 µM | GI50 (MDA-MB-231 breast): 1.04 µM | TGI (MDA-MB-231 breast): 8.48 µM and 26.9 µM and 26 µM | GI50 (MDA-MB-435): 2.91 µM | TGI (MDA-MB-435): 11.7 µM and 24.4 µM and 24 µM | TGI (MDA-N): 27.4 µM and 25.4 µM | GI50 (MOLT-4 leukemia): 2.03 µM | TGI (MOLT-4 leukemia): 5.89 µM and 20.7 µM and 18.1 µM | TGI (NCI-H226 lung): 22.1 µM and 50 µM and 11.7 µM | GI50 (NCI-H23 lung): 2.08 µM | TGI (NCI-H23 lung): 10.2 µM and 28.7 µM and 29.7 µM | GI50 (NCI-H460 lung): 2.69 µM | TGI (NCI-H460 lung): 10.1 µM and 44.4 µM and 28.7 µM | GI50 (NCI-H522 lung): 0.282 µM | TGI (NCI-H522 lung): 2.43 µM and 18.5 µM and 22.8 µM | GI50 (NCI/ADR-RES ovarian): 0.787 µM | TGI (NCI/ADR-RES ovarian): 7.56 µM and 23.3 µM and 24.9 µM | GI50 (OVCAR-3 ovarian): 2.5 µM | TGI (OVCAR-3 ovarian): 6.49 µM and 23.2 µM and 25.1 µM | GI50 (OVCAR-4 ovarian): 2.29 µM | TGI (OVCAR-4 ovarian): 13.6 µM and 27.7 µM and 24.5 µM | GI50 (OVCAR-5 ovarian): 4.24 µM | TGI (OVCAR-5 ovarian): 16.8 µM and 24.4 µM and 28.1 µM | GI50 (OVCAR-8 ovarian): 1.7 µM | TGI (OVCAR-8 ovarian): 10.1 µM and 28.7 µM and 32.8 µM | GI50 (PC-3 prostate): 1.8 µM | TGI (PC-3 prostate): 8.78 µM and 23.4 µM and 21.9 µM | GI50 (RPMI-8226 leukemia): 1.9 µM | TGI (RPMI-8226 leukemia): 6.82 µM and 32.3 µM and 23.2 µM | GI50 (RXF 393 renal): 2.01 µM | TGI (RXF 393 renal): 6.78 µM and 31.7 µM and 29.1 µM | GI50 (SF-268 CNS): 3.42 µM | TGI (SF-268 CNS): 18.3 µM and 36.1 µM and 36.7 µM | GI50 (SF-295 CNS): 1.9 µM | TGI (SF-295 CNS): 8.99 µM and 24 µM and 23.6 µM | GI50 (SF-539 CNS): 4.6 µM | TGI (SF-539 CNS): 16.4 µM and 38.3 µM and 29.4 µM | GI50 (SK-MEL-2 melanoma): 2.32 µM | TGI (SK-MEL-2 melanoma): 5.08 µM and 28.9 µM and 28.8 µM | GI50 (SK-MEL-28 melanoma): 4.66 µM | TGI (SK-MEL-28 melanoma): 16.6 µM and 34.6 µM and 30 µM | GI50 (SK-MEL-5 melanoma): 1.74 µM and 17.2 µM and 4.83 µM | TGI (SK-MEL-5 melanoma): 3.64 µM and 31 µM and 18.9 µM | GI50 (SK-OV-3 ovarian): 4.24 µM | TGI (SK-OV-3 ovarian): 14.8 µM and 26.8 µM and 35.2 µM | GI50 (SN12C renal): 2.5 µM | TGI (SN12C renal): 12.7 µM and 25.3 µM | GI50 (SNB-19 CNS): 3.35 µM | TGI (SNB-19 CNS): 17.9 µM and 32.3 µM and 30.5 µM | GI50 (SNB-75 CNS): 4.97 µM | TGI (SNB-75 CNS): 17.5 µM and 26.8 µM and 30.1 µM | GI50 (SR leukemia): 2.79 µM | TGI (SR leukemia): 10.6 µM and 21.6 µM and 14.7 µM | GI50 (SW-620 colon): 2.96 µM | TGI (SW-620 colon): 13.3 µM and 27.4 µM and 29.2 µM | GI50 (T-47D breast): 2.26 µM | TGI (T-47D breast): 8.76 µM and 23.4 µM and 19.9 µM | GI50 (TK-10 renal): 2.68 µM | TGI (TK-10 renal): 7.15 µM and 29 µM and 23.9 µM | GI50 (U251 CNS): 2.04 µM | TGI (U251 CNS): 7.46 µM and 28.6 µM and 26 µM | GI50 (UACC-257 melanoma): 2.63 µM | TGI (UACC-257 melanoma): 9.14 µM and 27.7 µM and 22.5 µM | GI50 (UACC-62 melanoma): 2.16 µM | TGI (UACC-62 melanoma): 11.9 µM and 25.2 µM and 22.3 µM | GI50 (UO-31 renal): 1.44 µM | TGI (UO-31 renal): 5.91 µM and 17.4 µM and 14.6 µM
